Measurements reported in patent US10464920B2, “Vicinal primary diamines associated with metal and/or free radical chelation motifs, and active against carbonyl and oxidative stress, and use thereof” (UNIVERSITE AMIENS PICARDIE JULES VERNE, priority 2015, dated 2019).

Experiments:
[1] = test system: low-density lipoproteins (LDLs); assay: Antiradical properties: inhibition of lipid peroxidation in AAPH-induced oxidation of LDLs; type: biochemical
Protocol: The antiradical properties of the various compounds are determined by inhibition of the lipid peroxidation in the in vitro model of the oxidation of the low-density lipoproteins (LDLs) (Free Radic. Biol. Med., 1992, 13, 341-390). The lipid peroxidation is initiated by the attack by free radicals of a double bond of a polyunsaturated fatty acid present in the LDLs. […] Once initiated, the oxidation of the LDLs is a chain reaction of lipid peroxidation generated by the free radicals. The oxidation in vitro of the LDLs is induced at 37° C. by the adding of the water-soluble compound 2,2′-Azobis(2-methylpropionamidine)dihydrochloride (AAPH), which generates free radicals during the spontaneous thermal breakdown thereof
Briefly, the oxidation, carried out in a 96-well plate, is induced at 37° C. by adding 20 μL of a solution of AAPH at 2 mM in D-PBS at 160 μL of LDL (100 μg/mL) in the presence or absence of 20 μL of the various solutions of the compounds to be tested dissolved in D-PBS (0.1 to 100 μM in final concentrations). The LDLs alone without adding AAPH are used as a negative control. Each oxidation is carried out in double. During the oxidation, the formation of the conjugated dienes is followed by the measurement of the optical density at 234 nm every 10 minutes for 8 h at 37° C. using a temperature-controlled TECAN spectrophotometer. The vitamin E (α-tocopherol) which is a powerful antioxidant recognised in this in vitro model is used as a reference molecule (J. Nutr. Biochem., 2012, 23, 845-51).

[2] = Cu2+ chelating properties by UV/Visible light spectrophotometry (murexide); type: physicochemical; conditions: 0.02-2 mM compound, CuSO4 0.25 mM solution, Hexamine buffer pH 5, RT 10 min
Protocol: J. Mol. Sci., 2009, 10, 5485-5497; Molecules, 2012, 17, 13457-13472). […] A Hexamine buffer 0.01 M/KCl 0.01 M (qsp 200 mL) of which the pH is adjusted to 5 using a solution of HCl 1N is first of all prepared. Solutions of CuSO4.5H2O at 0.5 mM (20 mL) and 0.25 mM (100 mL) are then carried out in this buffer, with the first being used to obtain the calibration curve. An aqueous solution of murexide at 1 mM must also be prepared extemporaneously (10 mL) as well as a stock solution of the compounds to be tested at 4.2 mM in Hexamine buffer 0.01 M/KCl 0.01 M or in a buffer and MeOH 75/25 mixture (6.2 mL). Various concentrations of the compounds to be tested are distributed in Hexamine buffer 0.01M/KCl 0.01M (pH=5) (Table 5) or in a buffer and MeOH 75/25 mixture in tubes for hemolysis (Table 6). The solution of CuSO4.5H2O at 0.25 mM (1 mL) is then added and this is allowed to incubate at RT for 10 min. Finally, the aqueous solution of murexide at 1 mM (0.1 mL) is introduced and is again allowed to incubate at RT for 1 min. The absorbances are then measured at 485 nm ([…]) and 520 nm ([…]) by UV/Visible light spectrophotometry (V-650 JASCO spectrometer) (measurements taken in triplicates). […] After introduction of the aqueous solution of murexide at 1 mM (0.1 mL), this is allowed to incubate at RT for 1 min and the absorbances are finally measured at 485 nm ([…]) and 520 nm ([…]) by UV/Visible light spectrophotometry.

[3] = test system: murine endothelial brain cells (bEnd.3); assay: Cytotoxicity, cellular viability (CCK-8/WST-8) on bEnd.3; type: cell-based; conditions: mouse
Protocol: (§1) The cellular viability is evaluated by a colorimetric method based on the detection of the conversion of a salt of the tetrazolium (WST-8) by the metabolically active cells (CCK-8 kit, Sigma, Lyons, France) (Molecules, 2014, 19(8), 12048-12064; J. Pharmacol. Toxicol. Methods., 2007, 56(1), 58-62). Living cells have mitochondrial dehydrogenases that reduce the WST-8 (2-(2-methoxy-4-nitrophenyl)-3-(4-nitrophenyl)-5-(2,4-disulfophenyl)-2H-tetrazolium), monosodium salt) to formazan of an orange colour, which dissolves directly in the culture medium in the presence of 1-Methoxy PMS (1-methoxy-5-methylphenazinium methyl sulphate). After an incubation for 1 h at 37° C., the absorbance of the formazan is measured at 450 nm. The absorbance is directly proportional to the number of living cells.
(§2) Briefly, the cells are inoculated in 96-well plates at a rate of 5.10^3 cells per well in 100 μL of the suitable medium until subconfluence. The cells are then washed with D-PBS, then treated with various concentrations (10 μM, 100 μM) of the products to be tested in triplicates for 24 and 48 h. A positive control is carried out with 10% of DMSO. The CCK-8 (10 μL) solution is then added to each well for an incubation for 1 h at 37° C. The measurement of the absorbance is taken at 450 nm using a Perkin Elmer 2103 Envision® microplate reader.
(§3) The viability of the cells is expressed as a % of the control (untreated cells) by the mean±standard deviation of triplicates forming a representative experiment or of three independent experiments conducted in triplicate.

[4] = test system: rat pheochromocytoma cells, treated as neuronal cells (PC12); assay: Cytotoxicity, cellular viability (CCK-8/WST-8) on PC12; type: cell-based; conditions: rat
Protocol: as §1, §2, §3

[5] = test system: human fibroblasts (MRC-5); assay: Cytotoxicity, cellular viability (CCK-8/WST-8) on MRC-5; type: cell-based
Protocol: as §1, §2, §3

[6] = ORACFL test (Oxygen Radical Absorbance Capacity) using fluorescein/AAPH; type: physicochemical; conditions: compounds at 10 μM; mean ± SEM of three independent experiments in triplicate
Protocol: The antioxidant properties of the compounds according to the invention were evaluated using a ORACFL test using fluorescein (J. Agric. Food Chem., 2004 52, 48-54; J. Agric. Food Chem., 2005, 53, 4290-4302). As such, peroxide radicals, generated in the presence of AAPH (2,2′-azobis(2-methylpropionamidine)dihydrochloride) at 37° C., react with this fluorescent sensor in order to give a non-fluorescent product. The protective effect of the test compounds can then be determined by following the decay curve of the fluorescence of the fluorescein over time and be measuring the area under the curve (AUC) of the sample in relation to that of a control corresponding to an absence of antioxidant.
The trolox (6-hydroxy-2,5,7,8-tetramethylchroman-2-carboxylic acid), a water-soluble analogue of vitamin E, is used as a standard for calculating the antioxidant capacity (ORACFL) of the compounds tested at 10 μM, expressed in […] of tested compound. This value is as such obtained using the straight-line calibration equation giving the area under the curve according to the various concentrations of trolox (Bioorg. Med. Chem., 2015, 23, 1135-1148) (FIG. 11).
A solution of fluorescein (FL) (12 nM; 150 μL) is introduced into a black 96-well plate (Dutscher, Brumath, France). The compounds to be tested (1-20 μM; 25 μL) or trolox (1-50 μM; 25 μL) dissolved in D-PBS are added into each well. After equilibration of the plate during an incubation at 37° C. for a minimum of 30 min, the radical reactions are initiated using a solution of AAPH prepared extemporaneously (30 mM; 25 μL). The fluorescence (λEx: 485 nm; λEm: 520 nm) is measured every 90 seconds for 60 cycles using a temperature-controlled Tecan Infinite® 200 PRO microplate reader (measurements taken in triplicates during three independent experiments).

[7] = Formation of adducts with MGO, kinetic study by HPLC; type: physicochemical; conditions: compound 10 mM, MGO 20 mM, 37° C., after 15 min of incubation
Protocol: The compounds to be tested are incubated at 37° C. in the presence of MGO or of MDA. A kinetic study aiming to report on the formation of adducts with the MGO or MDA is then carried out via HPLC analysis.
The compounds to be tested (30 μmol) are dissolved in PBS (1.5 mL). An aqueous solution (qsp 1.25 mL) of MGO at 40% in water (250 μmol) is then prepared and in parallel, MDA bis-(diOEt)-acetal (250 μmol) is set to react with a solution of HCl 1N (2 eq) in water (qsp 1.25 mL) for 1 h at room temperature. An aqueous solution of NaOH 0.05N is also required to neutralise the reaction medium (5 mL).
The solution of the compound to be tested (625 μL—final concentration in the medium=10 mM) is then set to react with the solution of MGO or of MDA prepared extemporaneously (125 μL—final concentration in the medium=20 mM) in the presence of NaOH 0.05 N (0.5 mL).
The various mixtures are then incubated in the oven at 37° C. for 24 h.
A sampling of each mixture (100 μL) is taken at regular intervals of time (0.25; 0.5; 1; 5 and 24 h) and stored at −20° C. in order to stop the reaction. After dilution in a MeCN/H2O 98:2 mixture at room temperature, the HPLC analysis is carried out on a Shimadzu LCMS-2020 apparatus (UV chromatogram at 190 nm and mass spectrum in positive electrospray ionisation mode (ESI+)) after separation on the Waters Acquity column using a gradient of solvents H2O+HCOOH 0.1%/MeCN+HCOOH 0.1% (98/2 for 2 min, then 55/45 for 2 min and 45/55 for 3 min) with a flow rate of 0.3 mL/min at 40° C. and an injection of volume of 1 (“detection mode: scan, interface voltage: tuning file, DL voltage: 100 V, Q-array DC: 40 V, Q-array RF: 40 V”). A blank is first of all carried out using a solution containing the reaction medium without scavenger. Then, a free scavenger solution at 10 mM is used as a negative control and the carnosine as a reference of the literature. The proportion of adducts formed with the MGO or MDA (generally, tR=4.1 to 6.8 min) is then measured in relation to the quantity of remaining free scavenger (generally, tR=0.8 to 4.6 min) after measurement of the area under the curve of the corresponding peaks on the UV spectrum (measurements taken for a representative sample).

| Compound | antioxidant / pro-oxidant behaviour ([1]; concentrations ranging from 25 to 100) | antioxidant / pro-oxidant behaviour ([1]; lower concentrations, 0.1 to 10 μM) | Cu^2+ chelating properties (complexation of the Cu^2+) [2] | viability of the cells as a percentage of the untreated cells ([3]; 24 h, 10 μM) | viability of the cells as a percentage of the untreated cells ([3]; 24 h, 100 μM) | viability of the cells as a percentage of the untreated cells ([3]; 48 h, 10 μM) | viability of the cells as a percentage of the untreated cells ([3]; 48 h, 100 μM) | viability of the cells as a percentage of the untreated cells ([4]; 24 h, 10 μM) | viability of the cells as a percentage of the untreated cells ([4]; 24 h, 100 μM) | viability of the cells as a percentage of the untreated cells ([4]; 48 h, 10 μM) | viability of the cells as a percentage of the untreated cells ([4]; 48 h, 100 μM) | viability of the cells as a percentage of the untreated cells ([5]; MRC-5, 10 μM, 24 h of treatment) | viability of the cells as a percentage of the untreated cells ([5]; MRC-5, 10 μM, 48 h of treatment) | viability of the cells as a percentage of the untreated cells ([5]; MRC-5, 100 μM, 24 h of treatment) | viability of the cells as a percentage of the untreated cells ([5]; MRC-5, 100 μM, 48 h of treatment) | ORACFL [6] | disappearance of the free scavenger to the benefit of adducts with the MGO [7] |
| --- | --- | --- | --- | --- | --- | --- | --- | --- | --- | --- | --- | --- | --- | --- | --- | --- | --- |
| COc1cc(/C=C/C(=O)NCCCCC(N)CN)ccc1O (stereo not shown) [Compound 29b, (E)-N-(5,6-diaminohexyl)-3-(4-hydroxy-3-methoxyphenyl)acrylamide] | antioxidants | pro-oxidants | poor results | 92% | 86% | 92% | 90% | 108% | 112% | 95% | 97% | 106% | 95% | 102% | 100% | 1.50 ± 0.10 μmol TE/μmol | – |
| Cc1c(O)c(=O)ccn1CCC(=O)NCCCCC(N)CN (stereo not shown) [Compound 37i, N-(5,6-diaminohexyl)-3-(3-hydroxy-2-methyl-4-oxopyridin-1(4H)-yl)propanamide] | – | – | most active | – | – | – | – | – | – | – | – | – | – | – | – | 1.24 ± 0.02 μmol TE/μmol | almost total disappearance of the free scavenger |
| Cc1c(O)c(=O)ccn1CCCNC(=O)CCC(N)CN (stereo not shown) [Compound 37j, 4,5-diamino-N-(3-(3-hydroxy-2-methyl-4-oxopyridin-1(4H)-yl)propyl)pentanamide] | – | – | most active | – | – | – | – | – | – | – | – | – | – | – | – | 1.01 ± 0.06 μmol TE/μmol | almost total disappearance of the free scavenger |
